This assay deals with T1, full-length beta-Catenin (Uniprot ID P35222) (Homo sapiens, UniProt P35222).
T1 construct: 10 nM full-length beta-Catenin (Uniprot ID P35222)
T1 sequence (P35222 1-781): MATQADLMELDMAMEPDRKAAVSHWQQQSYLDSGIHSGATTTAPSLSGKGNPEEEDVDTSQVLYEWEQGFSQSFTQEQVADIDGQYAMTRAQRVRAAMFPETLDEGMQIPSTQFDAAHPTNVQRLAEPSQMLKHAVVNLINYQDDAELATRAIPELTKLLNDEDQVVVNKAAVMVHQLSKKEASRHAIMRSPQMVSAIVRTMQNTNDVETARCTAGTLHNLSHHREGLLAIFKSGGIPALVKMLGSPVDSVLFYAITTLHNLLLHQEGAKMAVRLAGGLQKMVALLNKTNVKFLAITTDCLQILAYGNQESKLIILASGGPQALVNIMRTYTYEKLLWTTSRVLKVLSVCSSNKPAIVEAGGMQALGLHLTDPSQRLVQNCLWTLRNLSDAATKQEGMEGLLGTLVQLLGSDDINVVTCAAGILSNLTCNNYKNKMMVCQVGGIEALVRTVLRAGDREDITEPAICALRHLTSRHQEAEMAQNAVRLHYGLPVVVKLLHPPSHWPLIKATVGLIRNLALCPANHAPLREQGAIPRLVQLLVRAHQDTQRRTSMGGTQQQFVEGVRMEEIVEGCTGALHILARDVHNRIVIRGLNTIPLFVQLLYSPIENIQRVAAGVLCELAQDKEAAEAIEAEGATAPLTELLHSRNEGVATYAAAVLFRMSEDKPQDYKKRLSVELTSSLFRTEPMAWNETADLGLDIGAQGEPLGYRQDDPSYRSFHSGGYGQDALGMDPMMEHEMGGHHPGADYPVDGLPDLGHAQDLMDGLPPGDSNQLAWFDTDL
Description: Fluorescence polarization IC50 (beta-catenin / 5FAM-TCF4 10-53 competition). It counts as binding. The note with it: fluorescence polarization.

Like-named read-outs stand apart in the source and are kept apart here.

`CC(C)C[C@@H]1NC(=O)[C@H](Cc2ccccc2)NC(=O)[C@H](C)NC(=O)[C@H](C)NC(=O)[C@H](Cc2cccc(C(=O)O)c2)NC(=O)[C@H](CC(=O)O)NC(=O)C2(CCCC=CCCCOC(=O)N3CC[C@@](C(=O)N[C@@H](Cc4ccccc4Cl)C(=O)N[C@@H](Cc4csc5ccccc45)C(=O)N[C@@H](C)C(N)=O)(C3)NC1=O)CCCC=CC[C@]1(CCCN1C(=O)CBr)C(=O)N[C@@H](CC(=O)O)C(=O)N[C@@H](CC(C)(C)C)C(=O)N2` (stereo partly drawn) [I-2286, BrAc-PL3-Asp-Npg-B5-Asp-3COOHF-Ala-Ala-Phe-Leu-PyrS2-2C1F-BztA-Ala-NH2] displayed an IC50 (beta-Catenin FP IC50 (nM)) of 88 nM.

With `CCCCOC(=O)N1CCC[C@]12CC=CCCCC1(CCCC=CCCCOC(=O)N3CC[C@@](C(=O)N[C@@H](Cc4ccccc4Cl)C(=O)N[C@@H](Cc4csc5ccccc45)C(=O)N[C@@H](C)C(N)=O)(C3)NC(=O)[C@H](CC(C)C)NC(=O)[C@H](Cc3ccccc3)NC(=O)[C@H](C)NC(=O)[C@H](C)NC(=O)[C@H](Cc3cccc(C(=O)O)c3)NC(=O)[C@H](CC(=O)O)NC1=O)NC(=O)[C@H](CC(C)(C)C)NC(=O)[C@H](CC(=O)O)NC2=O` (stereo partly drawn) [I-2304, CO2Bu-PL3-Asp-Npg-B5-Asp-3COOHF-Ala-Ala-Phe-Leu-PyrS2-2C1F-BztA-Ala-NH2], the IC50 (read-out: beta-Catenin FP IC50) worked out at 511 nM.

With `COC(=O)N1CCC[C@]12CC=CCCCC1(CCCC=CCCCOC(=O)N3CC[C@@](C(=O)N[C@@H](Cc4ccccc4Cl)C(=O)N[C@@H](Cc4csc5ccccc45)C(=O)N[C@@H](C)C(N)=O)(C3)NC(=O)[C@H](CC(C)C)NC(=O)[C@H](Cc3ccccc3)NC(=O)[C@H](C)NC(=O)[C@H](C)NC(=O)[C@H](Cc3cccc(C(=O)O)c3)NC(=O)[C@H](CC(=O)O)NC1=O)NC(=O)[C@H](CC(C)(C)C)NC(=O)[C@H](CC(=O)O)NC2=O` (stereo partly drawn) [I-2324, CO2Me-PL3-Asp-Npg-B5-Asp-3COOHF-Ala-Ala-Phe-Leu-PyrS2-2C1F-BztA-Ala-NH2], the IC50 (read-out: beta-Catenin FP IC50) was found to be 83 nM.

Consider `CC(C)C[C@@H]1NC(=O)[C@H](Cc2ccccc2)NC(=O)[C@H](C)NC(=O)[C@H](C)NC(=O)[C@H](Cc2cccc(C(=O)O)c2)NC(=O)[C@H](CC(=O)O)NC(=O)C2(CCCC=CCCCOC(=O)N3CC[C@@](C(=O)N[C@@H](Cc4ccccc4Cl)C(=O)N[C@@H](Cc4csc5ccccc45)C(=O)N[C@@H](C)C(N)=O)(C3)NC1=O)CCCC=CC[C@]1(CCCN1C(=O)OC1CCCCC1)C(=O)N[C@@H](CC(=O)O)C(=O)N[C@@H](CC(C)(C)C)C(=O)N2` (stereo partly drawn) [I-2325, CO2Hex-PL3-Asp-Npg-B5-Asp-3COOHF-Ala-Ala-Phe-Leu-PyrS2-2C1F-BztA-Ala-NH2], for which the concentration for half-maximal inhibition (IC50) (read-out: beta-Catenin FP IC50) was 1350 nM.

Molecule `C[C@@H]1NC(=O)[C@H](C)NC(=O)[C@H](CC(=O)O)NC(=O)[C@H](CC(=O)O)NC(=O)C2(CCCC=CCCCOC(=O)N3CC[C@@](C(=O)N[C@@H](Cc4ccsc4)C(=O)N[C@@H](Cc4csc5ccccc45)C(=O)N[C@@H](Cc4c[nH]cn4)C(N)=O)(C3)NC(=O)[C@H](CCC(N)=O)NC(=O)[C@H](Cc3ccccc3)NC1=O)CCCC=CC[C@]1(CCCN1C(=O)Oc1ccccc1)C(=O)N[C@@H](CC(=O)O)C(=O)N[C@@H](CC(C)(C)C)C(=O)N2` (stereo partly drawn) [I-2326, CO2Ph-PL3-Asp-Npg-B5-Asp-Asp-Ala-Ala-Phe-Gln-PyrS2-3Thi-BztA-His-NH2] gave a half-inhibitory concentration (IC50) (beta-Catenin FP IC50 (nM)) of 185 nM.

`CC(C)C[C@@H]1NC(=O)[C@H](Cc2ccccc2)NC(=O)[C@H](C)NC(=O)[C@H](C)NC(=O)[C@H](Cc2cccc(C(=O)O)c2)NC(=O)[C@H](CC(=O)O)NC(=O)C2(CCCC=CCCCOC(=O)N3CC[C@@](C(=O)N[C@@H](Cc4ccccc4Cl)C(=O)N[C@@H](Cc4csc5ccccc45)C(=O)N[C@@H](C)C(N)=O)(C3)NC1=O)CCCC=CC[C@]1(CCCN1C(=O)Oc1ccccc1)C(=O)N[C@@H](CC(=O)O)C(=O)N[C@@H](CC(C)(C)C)C(=O)N2` (stereo partly drawn) [I-2327, CO2Ph-PL3-Asp-Npg-B5-Asp-3COOHF-Ala-Ala-Phe-Leu-PyrS2-2C1F-BztA-Ala-NH2] had a half-inhibitory concentration (IC50) (beta-Catenin FP IC50 (nM)) of 376 nM.

For `CC(=O)N1CCC[C@]12CC=CCCCC1(CCCC=CCCCOC(=O)N3CC[C@@](C(=O)N[C@@H](Cc4ccsc4)C(=O)N[C@@H](Cc4csc5ccccc45)C(=O)N[C@@H](CCC(N)=O)C(N)=O)(C3)NC(=O)[C@H](CC(N)=O)NC(=O)[C@H](Cc3ccccc3)NC(=O)[C@H](C)NC(=O)[C@H](C)NC(=O)[C@H](CC(=O)O)NC(=O)[C@H](CC(=O)O)NC1=O)NC(=O)[C@H](CC(C)(C)C)NC(=O)[C@H](Cn1cc(CC(C)(C)C(=O)O)nn1)NC2=O` (stereo partly drawn) [I-2329, Ac-PL3-[CH2CMe2CO2H]TriAzDap-Npg-B5-Asp-Asp-Ala-Ala-Phe-Asn-PyrS2-3Thi-BztA-Gln-NH2], where the note is “read-out: beta-Catenin FP IC50”, the half-inhibitory concentration (IC50) came out at 3800 nM.

As for `CC(=O)N1CCC[C@]12CC=CCCCC1(CCCC=CCCCOC(=O)N3CC[C@@](C(=O)N[C@@H](Cc4ccsc4)C(=O)N[C@@H](Cc4csc5ccccc45)C(=O)N[C@@H](CCC(N)=O)C(N)=O)(C3)NC(=O)[C@H](CC(N)=O)NC(=O)[C@H](Cc3ccccc3)NC(=O)[C@H](C)NC(=O)[C@H](C)NC(=O)[C@H](CC(=O)O)NC(=O)[C@H](CC(=O)O)NC1=O)NC(=O)[C@H](CC(C)(C)C)NC(=O)[C@H](Cn1cc(C(C)(C)C(=O)O)nn1)NC2=O` (stereo partly drawn) [I-2330, Ac-PL3-[CMe2CO2H]TriAzDap-Npg-B5-Asp-Asp-Ala-Ala-Phe-Asn-PyrS2-3Thi-BztA-Gln-NH2], where the note is “read-out: beta-Catenin FP IC50”, the IC50 amounted to 3860 nM.

On to `CC(=O)N1CCC[C@]12CC=CCCCC1(CCCC=CCCCOC(=O)N3CC[C@@](C(=O)N[C@@H](Cc4ccsc4)C(=O)N[C@@H](Cc4csc5ccccc45)C(=O)N[C@@H](C)C(N)=O)(C3)NC(=O)[C@H]([C@@H](C)O)NC(=O)[C@H](Cc3ccccc3)NC(=O)[C@H](C)NC(=O)[C@H](C)NC(=O)[C@H]([C@@H](C)O)NC(=O)[C@H](CC(N)=O)NC1=O)NC(=O)[C@H](CC(C)(C)C)NC(=O)[C@H](CC(=O)O)NC2=O` (stereo partly drawn) [I-2334, Ac-PL3-Asp-Npg-B5-Asn-Thr-Ala-Ala-Phe-Thr-PyrS2-3Thi-BztA-Ala-NH2], for which the IC50 (read-out: beta-Catenin FP IC50) is 656 nM.

For `CC(=O)N1CCC[C@]12CC=CCCCC1(CCCC=CCCCOC(=O)N3CC[C@@](C(=O)N[C@@H](Cc4ccsc4)C(=O)N[C@@H](Cc4csc5ccccc45)C(=O)N[C@@H](CCC(N)=O)C(N)=O)(C3)NC(=O)[C@H](CC(N)=O)NC(=O)[C@H](Cc3ccccc3)NC(=O)[C@H](C)NC(=O)[C@H](C)NC(=O)[C@H](Cc3cccc(C(=O)O)c3)NC(=O)[C@H](CC(N)=O)NC1=O)NC(=O)[C@H](CC(C)(C)C)NC(=O)[C@H](CC(=O)O)NC2=O` (stereo partly drawn) [I-2335, Ac-PL3-Asp-Npg-B5-Asn-3COOHF-Ala-Ala-Phe-Asn-PyrS2-3Thi-BztA-Gln-NH2], where the note is “read-out: beta-Catenin FP IC50”, the IC50 was determined as 7 nM.

With `CC(=O)N1CCC[C@]12CC=CCCCC1(CCCC=CCCCOC(=O)N3CC[C@@](C(=O)N[C@@H](Cc4ccsc4)C(=O)N[C@@H](Cc4csc5ccccc45)C(=O)N[C@@H](Cc4c[nH]cn4)C(N)=O)(C3)NC(=O)[C@H]([C@@H](C)O)NC(=O)[C@H](Cc3ccccc3)NC(=O)[C@H](C)NC(=O)[C@H](C)NC(=O)[C@H]([C@@H](C)O)NC(=O)[C@H](CC(N)=O)NC1=O)NC(=O)[C@H](CC(C)(C)C)NC(=O)[C@H](CC(=O)O)NC2=O` (stereo partly drawn) [I-2337, Ac-PL3-Asp-Npg-B5-Asn-Thr-Ala-Ala-Phe-Thr-PyrS2-3Thi-BztA-His-NH2], where the note is “read-out: beta-Catenin FP IC50”, the half-maximal inhibitory concentration (IC50) turned out to be 311 nM.

Regarding `CC(=O)N1CCC[C@]12CC=CCCCC1(CCCC=CCCCOC(=O)N3CC[C@@](C(=O)N[C@@H](Cc4ccsc4)C(=O)N[C@@H](Cc4csc5ccccc45)C(=O)N[C@@H](CCC(N)=O)C(N)=O)(C3)NC(=O)[C@H](CC(N)=O)NC(=O)[C@H](Cc3ccccc3)NC(=O)C(C)(C)NC(=O)[C@H](C)NC(=O)[C@H]([C@@H](C)O)NC(=O)[C@H](CC(N)=O)NC1=O)NC(=O)[C@H](CC(C)(C)C)NC(=O)[C@H](CC(=O)O)NC2=O` (stereo partly drawn) [I-2339, Ac-PL3-Asp-Npg-B5-Asn-Thr-Ala-Aib-Phe-Asn-PyrS2-3Thi-BztA-Gln-NH2], for the setting “read-out: beta-Catenin FP IC50”, the IC50 is 2820 nM.

On to `CC(=O)N1CCC[C@]12CC=CCCCC1(CCCC=CCCCOC(=O)N3CC[C@@](C(=O)N[C@@H](Cc4ccccc4)C(=O)N[C@@H](Cc4csc5ccccc45)C(=O)N[C@@H](CCC(N)=O)C(N)=O)(C3)NC(=O)[C@H](CC(C)C)NC(=O)[C@H](Cc3ccccc3)NC(=O)[C@H](C)NC(=O)[C@H](CCCCNC(C)C)NC(=O)[C@H](Cc3cccc(C(N)=O)c3)NC(=O)[C@H](CC(=O)O)NC1=O)NC(=O)[C@H](CC1CCCCC1)NC(=O)[C@H](CC(N)=O)NC2=O` (stereo partly drawn) [I-2342, Ac-PL3-Asn-Cha-B5-Asp-3cbmf-iPrLys-Ala-Phe-Leu-PyrS2-Phe-BztA-Gln-NH2], for which the IC50 (read-out: beta-Catenin FP IC50) was determined as 2730 nM.

In the case of `CC(=O)N1CCC[C@]12CC=CCCCC1(CCCC=CCCCOC(=O)N3CC[C@@](C(=O)N[C@@H](Cc4ccccc4)C(=O)N[C@@H](Cc4csc5ccccc45)C(=O)N[C@@H](CCC(N)=O)C(N)=O)(C3)NC(=O)[C@H](CC(C)C)NC(=O)[C@H](Cc3ccccc3)NC(=O)[C@H](C)NC(=O)[C@H](CCCCNC(C)C)NC(=O)[C@H](CCO)NC(=O)[C@H](CC(=O)O)NC1=O)NC(=O)[C@H](CC1CCCCC1)NC(=O)[C@H](CC(N)=O)NC2=O` (stereo partly drawn) [I-2344, Ac-PL3-Asn-Cha-B5-Asp-Hse-iPrLys-Ala-Phe-Leu-PyrS2-Phe-BztA-Gln-NH2], the IC50 (read-out: beta-Catenin FP IC50) worked out at 586 nM.

The record behind these values is US20240116985A1, “STAPLED PEPTIDES AND METHODS THEREOF” (priority 2020, published 2024).
